We go through 1 compound from patent US20260240200A1, “COMPOSITION COMPRISING AN N-GUANYLAMINO ACID FOR DRINKING WATER APPLICATION” (Evonik Operations GmbH, priority 2023, published 2026).

Data set [1] in a line: Determination of the dissolution time in 10 L tap water, neither stirred nor moved. The class given is physicochemical. The following applies: not stirred or moved. The procedure:
The mixture was neither stirred nor moved. After 3 minutes there was no solid mixture at the bottom of the beaker.
A beaker with 10 L tap water was provided and 3 g (25.3 mmol) guanidinoacetic acid (GAA, powder, purchased from Gendone, China) was added. The powder sank to the bottom of the beaker. The mixture was not stirred or moved. After 4 days, no solid material was recognizable any more at the bottom of the beaker.

For data set [2] the following is noted: 15° C.; cited from earlier work.

Where only a bound is given, the exact number is not on record here.

For the compound `N=C(N)NCC(=O)O` [guanidinoacetic acid], in data set [1], the “dissolution time (no solid material recognizable at the bottom of the beaker)” value is listed as at most 4 days. Also, the solubility in water in data set [2] is 1 g in 278 ml water.
